Results from patent US9084423B2, “Inhibition of bacterial biofilms with imidazole derivatives” (North Carolina State University, priority 2007, dated 2015).

Columns and labels:
P. aeruginosa PA14 = test: Static biofilm inhibition assay (crystal violet), PA14; format: cell-based, Pseudomonas aeruginosa; conditions: for IC50: PA14, inhibition of biofilm formation, crystal violet, 24 hours
Method: (§1) An overnight culture of the bacterial strain being screened against was subcultured at an OD600 of 0.1 into the media used (listed below with strain) and then pipetted into test tubes along with a predetermined concentration of our compound of interest. Test tubes were then poured into tilted Petri dishes and 100 μL of media, strain and compound were then transferred into 96-well PVC microtiter plates. These microtiter plates were then covered, wrapped in Saran™ Wrap polyethylene film (S.C. Johnson, Racine, Wis.) and allowed to incubate at 37° C. for 24 hours. After that time, the medium was discarded and the plates were thoroughly washed with water. The remaining biofilm that was formed during incubation was stained with 100 μL of a 0.1% crystal violet solution and allowed to incubate at room temperature for 30 minutes. After 30 minutes, the crystal violet was discarded and washed thoroughly again with water. The remaining crystal violet that had stained the biofilm in the inside walls of the 96-well PVC plates was solubilized with 200 μL of 95% ethanol. The quantification of biofilm formation was accomplished by transferring 125 μL of the ethanol solution into a polystyrene microtiter dish, which was read by spectrophotometry (A540). After the background has been subtracted from each row, a percent inhibition can be calculated by dividing the amount of crystal violet in wells that contained compound by the amount of crystal violet in wells that contained bacteria only. Each concentration reported during the course of this study was repeated two to five times with each of those biofilm inhibition assays being done in 6 replicates each.
(§2) An overnight culture of the wild type strain was subcultured at an OD600 of 0.10 into LBNS along with a predetermined concentration of the small molecule to be tested for biofilm inhibition. Samples were then aliquoted (100 μL) into the wells of a 96-well PVC microtiter plate. The microtiter dishes were covered and sealed before incubation under stationary conditions at 37° C. for 24 hours. After that time, the medium was discarded and the plates thoroughly washed with water. The wells were then inoculated with a 0.1% aqueous solution of crystal violet (100 μL) and allowed to stand at ambient temperature for 30 minutes. Following another thorough washing with water the remaining stain was solubilized with 200 μL of 95% ethanol. Biofilm inhibition was quantitated by measuring the OD540 for each well by transferring 125 μL of the ethanol solution into a fresh polystyrene microtiter dish for analysis.
(§3) To examine each compound's ability to inhibit the formation of Pseudomonas aeruginosa biofilms, PAO1 and PA14 were employed as the target bacterial strains using a crystal violet reporter assay. G. A. O'Toole, R. Kolter, Mol. Microbiol. 1998, 28, 449. All compounds were initially screened at 500 μM for anti-biofilm activity.
as §2, with “for 24 hours, After that” for “for 24 hours. After that”, “violet (100 pt) and allowed” for “violet (100 μL) and allowed”

pre-formed PAO1 biofilms = test: Static biofilm dispersion assay, PAO1; format: cell-based; conditions: Pseudomonas aeruginosa, 24-hour pre-formed biofilm, 24 hours treatment
Method: (§4) One aspect associated with small molecule modulation of biofilm development is the ability to disperse a pre-formed biofilm. There have only been a limited number of examples in the literature of molecules that disperse bacterial biofilms. Banin et al., Appl. Environ. Microbiol., 2006, 72, 2064. L. M. Junker and J. Clardy, Antimicrob, Agents Ch., 2007, 51, 3582. Boles et al., Mol. Microbiol., 2005, 57, 1210. TAGE was assayed for its ability to disperse pre-formed PAO1 and PA14 biofilms. Each bacterial strain was allowed to form biofilms in a microtiter well for 24 hours in the absence of compound. […] After 24 hours, all the wells were washed vigorously to remove media and planktonic bacteria, and then were stained with crystal violet to quantify the amount of remaining biofilm Representative PAO1 results are depicted in FIG. 6.
(§5) An overnight culture of either PAO1 or PA14 was subcultured at an OD600 of 0.5 into LBNS and aliquoted (100 μL) into the wells of a 96-well PVC microtiter plate. […] The quantification of remaining biofilm was accomplished by transferring 125 μL of the ethanol solution into a polystyrene microtiter dish, which was read by spectrophotometry (A540). Percent dispersion was calculated in the same manner as percent biofilm inhibition described previously in this experimental section. […]

pre-formed PA14 biofilms = test: Static biofilm dispersion assay, PA14; format: cell-based; conditions: Pseudomonas aeruginosa, 24-hour pre-formed biofilm, 24 hours treatment
Method: as §4, §5

[1] = tested on: planktonic P. aeruginosa PAO1; test: Planktonic growth (growth curves, colony counts), PAO1; format: cell-based, Pseudomonas aeruginosa; conditions: growth curves and/or colony counts, presence vs absence of compound, at IC50 or as stated
Source text: To answer the question of whether the compounds were antibiotics or true inhibitors of biofilm formation, we tested the ability of both compounds to inhibit growth of planktonic P. aeruginosa. Growth was quantitated by measuring optical density at 600 nm. […]

[2] = tested on: planktonic P. aeruginosa PA14; test: Planktonic growth (growth curves, colony counts), PA14; format: cell-based, Pseudomonas aeruginosa; conditions: growth curves and/or colony counts, presence vs absence of compound, at IC50 or as stated
[3] = tested on: P. aeruginosa strain PAO1; test: Static biofilm inhibition assay (crystal violet), PAO1; format: cell-based, Pseudomonas aeruginosa; conditions: for IC50: inhibition of biofilm formation, crystal violet, 24 hours
Method: Each compound was assayed for the ability to inhibit the formation of P. aeruginosa biofilms. […] We employed a standard crystal violet reporter assay to assess for the formation of biofilms. Briefly, P. aeruginosa strain PAO1 was allowed to form biofilms in a multi-well plate in the absence or presence of our compounds. Planktonic (or free growing) bacteria were then removed, wells washed vigorously, and crystal violet added. Crystal violet stains the remaining bacteria which, following ethanol solubilization, can be quantitated by spectrophotometry (A540).
as §1, §2, §3
An overnight culture of the wild type strain was subcultured at an OD600 of 0.10 into LBNS along with a predetermined concentration of the small molecule to be tested for biofilm inhibition. Samples were then aliquoted (100 μL) into the wells of a 96-well PVC microtiter plate. The microtiter dishes were covered and sealed before incubation under stationary conditions at 37° C. for 24 hours, After that time, the medium was discarded and the plates thoroughly washed with water. […]

PDO300 = test: Planktonic growth (growth curves, colony counts), PDO300; format: cell-based, Pseudomonas aeruginosa; conditions: growth curves and/or colony counts
[4] = tested on: Acinetobacter Baumannii (ATCC 19606); test: Static biofilm inhibition assay (crystal violet), A. baumannii; format: cell-based; conditions: ATCC19606, inhibition of biofilm formation, 24 hours, read-out: IC50 value for inhibition against A. baumannii
Method: as §1, with “The remaining crystal violet that had stained the biofilm in the inside walls of the 96-well PVC plates was solubilized with 200 μL of 95% ethanol.” left out, “Each concentration reported during the course of this study was repeated two to five times with each of those biofilm inhibition assays being done in 6 replicates each.” left out

[5] = tested on: B. bronchiseptica biofilms (strain Rb50); test: Static biofilm inhibition assay (crystal violet), RB50; format: cell-based; conditions: Bordetella bronchiseptica, inhibition of biofilm formation, 24 hours
Method: as §1, with “The remaining crystal violet that had stained the biofilm in the inside walls of the 96-well PVC plates was solubilized with 200 μL of 95% ethanol.” left out, “Each concentration reported during the course of this study was repeated two to five times with each of those biofilm inhibition assays being done in 6 replicates each.” left out

[6] = tested on: existing biofilms of P. aeruginosa; test: Biofilm dispersion, P. aeruginosa (Example 6); format: cell-based, Pseudomonas aeruginosa; conditions: range of concentrations, FIG. 21
Method: (§6) From a clinical perspective, the ability to disperse an established biofilm can be an important consideration, because a physician is typically faced with treating an established or chronic biofilm infection. DHS was assessed for its ability to disperse existing biofilms of P. aeruginosa, A. baumannii, and B. bronchiseptica. Each bacterial strain was allowed to form biofilms for 24 hours in the absence of compound. At the end of 24 hours, the media and planktonic bacteria were removed and the remaining biofilm was treated either with media alone or media containing DHS.

A. baumannii biofilms = test: Biofilm dispersion, A. baumannii; format: cell-based, Acinetobacter baumannii; conditions: range of concentrations, FIG. 21
Method: Finally, each of the TAGE derivatives were assayed for their ability to disperse pre-formed biofilms. […] While not wishing to be bound by any particular theory, it is hypothesized that the failure of these derivatives to effectively disperse biofilms, in contrast to TAGE, might be due to impeded diffusion through the biofilm matrix.
as §6

A. baumannii = test: Planktonic growth (growth curves, colony counts), A. baumannii; format: cell-based, Acinetobacter baumannii; conditions: growth curves and/or colony counts
Method: Screens of the three compounds were performed against A. baumannii and B. bronchiseptica.

[7] = tested on: existing biofilms of B. bronchiseptica; test: Biofilm dispersion, B. bronchiseptica; format: cell-based, Bordetella bronchiseptica; conditions: range of concentrations, FIG. 21
Method: as §6

[8] = tested on: PDO300, mucoid strain of P. aeruginosa; test: Static biofilm inhibition assay (crystal violet), PDO300; format: cell-based; conditions: Pseudomonas aeruginosa, 24 h, read-out: IC50 against PDO300
Method: PDO300 was employed to assay if TAGE would inhibit the formation of mucoid biofilms. PDO300 is a well-characterized mucoid strain of P. aeruginosa that is genotypically identical to PAO1 except for the mucA mutation that converts the bacterium to the mucoid phenotype (Mathee et al., Microbiology, 1999, 145, 1349), PDO300 biofilms were allowed to develop in a 96-well plate in the absence or presence of TAGE. After 24 hours, the media and planktonic bacteria were removed, the wells were washed vigorously, and crystal violet was added. Crystal violet stains the bacterial biofilm that forms on the inside wall of the well at the air/liquid interface, which, following ethanol solubilization, can be quantitated by spectrophotometry (A540) (O'Toole et al., Mol. Microbiol., 1998, 30, 295).
An overnight culture of the bacterial strain being screened against was subcultured at an OD600 of 0.1 into the media used (listed below with strain) and then pipetted into test tubes along with a predetermined concentration of our compound of interest. Test tubes were then poured into tilted Petri dishes and 100 μL of media, strain and compound were then transferred into 96-well PVC microtiter plates. […] The quantification of biofilm formation was accomplished by transferring 125 μL of the ethanol solution into a polystyrene microtiter dish, which was read by spectrophotometry (A540). […]

[9] = listed as DHS 23, hydrochloride
[10] = listed as DHS (7), hydrochloride

What does the source list for `CCCCCCCCCCCCNC(=O)CCCc1c[nH]c(N)n1.Cl` [Compound 12, 4-(2-amino-1H-imidazol-4-yl)-N-dodecyl-butyramide hydrochloride]?
IC50 (P. aeruginosa PA14; Pseudomonas aeruginosa): 2.26 µM; EC50 (pre-formed PAO1 biofilms): 32.8 ± 4.7 µM; EC50 (pre-formed PA14 biofilms): 21.3 ± 3.9 µM; microbicidal effect on PAO1 planktonic growth (in words) [1]: remained unchanged; microbicidal effect on PA14 planktonic growth (in words) [2]: remained unchanged; IC50 ([3]; Pseudomonas aeruginosa, PAO1): 2.84 µM

With `Cl.Cn1c(C(=O)NCCCc2c[nH]c(N)n2)cc(Br)c1Br` [Compound 23, 4,5-dibromo-1-methyl-pyrrole-2-carboxylic acid [3-(2-amino-1H-imidazol-4-yl)-propyl]-amide hydrochloride] as the molecule, how does the “bactericidal activity against PDO300 (in words)” value (PDO300) read?
Its value is “lacked significant bactericidal activity”.

And the IC50 [4]?
The IC50 was 110 µM.

And the IC50 [5]?
Its IC50 is 238 µM.

And the “dispersion of existing P. aeruginosa biofilms (in words)” value [6]?
Its value is “able to successfully disperse”.

What about the “% Biofilm Inhibition at 500 μM vs PA14” value (P. aeruginosa PA14; 500 μM, hydrochloride) of the same molecule?
Its value is over 95%.

And the inhibition at 500 µM (P. aeruginosa PA14; Pseudomonas aeruginosa, PA14, 24 h)?
The inhibition at 500 µM was over 95%.

And the IC50 (P. aeruginosa PA14; Pseudomonas aeruginosa)?
The IC50 was 111 ± 8 µM.

And the “dispersion of existing A. baumannii biofilms (in words)” value (A. baumannii biofilms)?
Its value is “able to successfully disperse”.

And the “microbicidal effect on A. baumannii planktonic growth (in words)” value (A. baumannii)?
The value was “no microbicidal effects”.

And the “microbicidal effect on PAO1 planktonic growth (in words)” value [1, 9]?
The value was “no reduction”.

What about the “microbicidal effect on PAO1 planktonic growth (in words)” value [1, 10] of the same molecule?
Its value is “not due to a bactericidal effect”.

And the “dispersion of existing B. bronchiseptica biofilms (in words)” value [7]?
The value was “able to successfully disperse”.

What about the “microbicidal effect on PA14 planktonic growth (in words)” value [2, 9] of the same molecule?
Its value is “no reduction”.

And the “microbicidal effect on PA14 planktonic growth (in words)” value [2, 10]?
Its value is “not due to a bactericidal effect”.

And the “% Biofilm Inhibition at 500 μM vs PAO1” value ([3]; 500 μM, hydrochloride)?
Its value is over 95%.

And the inhibition at 500 µM ([3]; Pseudomonas aeruginosa, PAO1)?
Its inhibition at 500 µM is over 95%.

What about the IC50 ([3]; Pseudomonas aeruginosa, PAO1) of the same molecule?
Its IC50 is 51 ± 9 µM.

And the “fold more active than both TAGE and CAGE” value ([3]; from IC50 values against PAO1 and PA14)?
The value was “approximately 2 fold”.

What about the IC50 [8] of the same molecule?
Its IC50 is 115 µM.
